“And” between values parts separate entries of the source, which are not always exact repeats. Equal entries are not always repeated.
Assays:
[1] = tested on: PC-3 prostate cancer cell line; assay: MTT anti-proliferative assay, PC-3; type: cell-based; conditions: 48 h of incubation
Experimental: (§1) Spirooxindoles 6a–p were evaluated for their anti-proliferative potency towards HepG2 liver cancer and PC-3 prostate cancer cell lines. Both cells lines were cultured as monolayers in DMEM supplemented with 10% foetal bovine serum (FBS), L-glutamine (2 mM), penicillin (100 U/mL) and streptomycin sulphate (100 µg/mL). Then, cells were sub-cultured with trypsine/EDTA solution, counted with haemocytometer and plated onto 96-well plates (5000 cells/well) and left overnight so as to form a semi-confluent monolayer.
(§2) Spirooxindoles 6a–p were tested for their in vitro anti-HCC activity against HepG2 cell line, and for their anti-prostate cancer activity against PC-3 cell line by the use of MTT reduction assay. The anticancer drug Adriamycin was co-assayed as the positive control.

[2] = Ferric reducing antioxidant power (FRAP); conditions: 593 nm, 30 min at 37 °C
Experimental: The Benzie and Strain method[33] was adopted to assess the ferric reducing antioxidant power (FRAP) for spirooxindoles 6a–p. Absorbance of mixtures was recorded at 593 nm after incubation for 30 min at 37 °C. FRAP results were expressed as μM Fe^2+ equivalents.
FRAP assay is a widely used antioxidant assay that uses antioxidant substances as reducing agents in a redox-linked colorimetric reaction, wherein Fe^3+ is reduced to Fe^2+ at acidic pH that results in a formation of a coloured ferrous-probe complex from a colourless ferric-probe complex. In this assay, the electron donation capacity (reflecting the electron transfer ability) of the examined compounds is evaluated.
In this study, all spirooxindoles 6a–p herein reported were evaluated for their potential FRAP. The results were expressed as µM Fe^2+ equivalents and presented in Table 6, where the higher µM Fe^2+ equivalents value means higher FRAP and subsequently higher antioxidant capacity.

[3] = tested on: non-tumorigenic human breast MCF-10A cell line; assay: Cytotoxicity towards non-tumorigenic MCF-10A cells; type: cell-based
[4] = DPPH radical scavenging assay; conditions: mean ± SD of three experiments; 30 min, 517 nm
Experimental: The antioxidant potential of spirooxindoles 6a–p against DPPH˙ was evaluated as per previously described procedures by Brand-Williams et al.[32]. DPPH solution was prepared by dissolving 0.024 g DPPH in methanol (100 mL). In 96-well plates, × μL sample and 200-x μL DPPH solution were added. The plate was incubated for 30 min at room temperature in the dark, and finally, absorbance was recorded at 517 nm wavelength. Ascorbic acid was used as positive control. The percent radical scavenging potential was calculated for each compound via the following equation: Scavenging effect (%) = {(Absorbance of control − Absorbance of sample)/Absorbance of control} × 100.
The DPPH (2,2-diphenyl-1-picrylhydrazyl) radical scavenging activity assay is considered as one of the most common and simple methods for measuring the antioxidant ability to trap free radicals. […] Substances that have the potential to act as electron donors result in reduction of this DPPH radical to the corresponding DPPH2 disclosing their antioxidant potential. The principle of the method relies upon measuring the absorbance of the odd electrons of DPPH at 517 nm. The absorbance decreases, in the presence of free radical scavengers, proportional to the decrease of the DPPH radical concentration.

[5] = tested on: HepG2 hepatocellular carcinoma cell line; assay: MTT anti-proliferative assay, HepG2; type: cell-based; conditions: Homo sapiens, 48 h of incubation
Experimental: as §1, §2

Bcl-2 = assay: ELISA of anti-apoptotic marker Bcl-2 in HepG2 cells; type: cell-based; conditions: HepG2 treated at IC50 (6.9 µM)
Experimental: (§3) The levels of the apoptotic markers caspase-3, caspase-9, p53 and Bax, as well as the anti-apoptotic marker Bcl-2 were evaluated by the use of ELISA colorimetric kits per the manufacturer’s instructions, as reported earlier[28]^,[29]. Furthermore, the pro-apoptotic potential of spirooxindole 6a towards HepG2 cells was assessed using FITC Annexin V Apoptosis Detection Kit by flow cytometry, according to the manufacturer’s protocol and referring to the reported procedures[30]^,[31].
(§4) The Bax/Bcl-2 ratio is considered as a decisive value that gives a real insight to the overall pro-apoptotic impact of the examined compound.

HepG2 cells [6] = assay: Annexin V-FITC/PI apoptosis assay; type: cell-based; conditions: HepG2, 6.9 µM (IC50)
Experimental: as §3

HepG2 cells [7] = assay: Cell cycle analysis (PI staining, flow cytometry); type: cell-based; conditions: HepG2, 6.9 µM (IC50), 24 h
Experimental: The samples were analysed by a flow cytometer (BectonDickinson FACSCalibur, BD, USA) and data were analysed using the CellQuest software (Becton Dickinson).
The impact of spirooxindole 6a on the normal cell cycle progression was investigated using flow cytometric analysis of the DNA ploidy in HepG2 cells. […] Alteration of the Pre-G phase and arrest of G2-M phase may imply apoptosis as a potential mechanism for 6a-induced cancer cell death.

p53 = assay: ELISA of p53 in HepG2 cells; type: cell-based; conditions: HepG2 treated at IC50 (6.9 µM)
Experimental: as §3
(§5) The elevated Bax/Bcl-2 ratio aroused the assessment of the expression levels of the pro-apoptotic active caspase-3, caspase-9 and p53 tumour suppressor protein.

[8] = tested on: HepG2 hepatocellular carcinoma cell line; assay: MTT anti-proliferative assay, HepG2; type: cell-based; conditions: 48 h exposure, phase contrast microscopy
caspase-9 = assay: ELISA of active caspase-9 in HepG2 cells; type: cell-based; conditions: HepG2 treated at IC50 (6.9 µM)
Experimental: as §3, §5

Bax = assay: ELISA of apoptotic marker Bax in HepG2 cells; type: cell-based; conditions: HepG2 treated at IC50 (6.9 µM)
Experimental: as §3, §4

caspase-3 = assay: ELISA of active caspase-3 in HepG2 cells; type: cell-based; conditions: HepG2 treated at IC50 (6.9 µM)
Experimental: as §3, §5

Row | SMILES | IC50 [1] | FRAP, µM (Fe^2+ Eq.) [2] | IC50 [3] | DPPH radical scavenging IC50 [4] | IC50 [5] | further results
1 | Cc1ccc(C2=C(C#N)C3(C(=O)Nc4ccc(Br)cc43)c3c(-c4cccs4)nn(-c4ccccc4)c3N2)cc1 (stereo not shown) [Compound 6j] | 26.6 µM | 10.34 µM (Fe^2+ Eq.) | 146 µM | 43.42 ± 3.04 µg/mL | 9.9 µM | 
2 | N#CC1=C(c2ccc(Cl)cc2)Nc2c(c(-c3cccs3)nn2-c2ccccc2)C12C(=O)Nc1ccccc12 (stereo not shown) [Compound 6d] | > 50 µM | 10.99 µM (Fe^2+ Eq.) |  | 33.43 ± 1.24 µg/mL | 49.1 µM | 
3 | Cc1ccc(C2=C(C#N)C3(C(=O)Nc4ccccc43)c3c(-c4cccs4)nn(-c4ccccc4)c3N2)cc1 (stereo not shown) [Compound 6b] | 34.2 µM | 6.933 µM (Fe^2+ Eq.) | 122 µM | 113.45 ± 5.59 µg/mL | 21 µM | 
4 | Cc1ccc(C2=C(C#N)C3(C(=O)Nc4ccc(Cl)cc43)c3c(-c4cccs4)nn(-c4ccccc4)c3N2)cc1 (stereo not shown) [Compound 6f] | 29.3 µM | 11.36 µM (Fe^2+ Eq.) | 159 µM | 40.31 ± 2.61 µg/mL | 32.7 µM | 
5 | COc1ccc(C2=C(C#N)C3(C(=O)Nc4ccc(OC)cc43)c3c(-c4cccs4)nn(-c4ccccc4)c3N2)cc1 (stereo not shown) [Compound 6o] | > 50 µM | 11.90 µM (Fe^2+ Eq.) |  | 58.82 ± 3.14 µg/mL | > 50 µM | 
6 | N#CC1=C(c2ccccc2)Nc2c(c(-c3cccs3)nn2-c2ccccc2)C12C(=O)Nc1ccccc12 (stereo not shown) [Compound 6a] | 11.8 µM | 11.98 µM (Fe^2+ Eq.) | 94.6 µM | 29.76 ± 1.82 µg/mL | 6.9 µM | Bcl-2, folds of control (Bcl-2): 0.57 folds of control; Bcl-2 expression level (Bcl-2): 2.51 ng/mL; down-regulation of Bcl-2 expression compared to control (Bcl-2): ~42%; total increase in apoptosis with respect to control (HepG2 cells [6]): about 16.3 folds; late apoptosis (upper right quadrant), annexin-V positive cells (HepG2 cells [6]; control 0.33%): 14.14%; early apoptosis (lower right quadrant), annexin-V positive cells (HepG2 cells [6]; control 0.95%): 6.76%; decrease of S phase with respect to control (HepG2 cells [7]): ~0.37 folds; increase of G2/M phase related to control (HepG2 cells [7]): 2.1 folds; increase of Pre-G phase related to control (HepG2 cells [7]): 11.9 folds; p53, folds of control (p53): ~10.03 folds of control and ~10 folds of control; p53 expression level (p53): 774.5 pg/mL; Morphological changes of HepG2 cells [8]: cell rounding, shrinkage and monolayer disruption; Caspase-9, folds of control (caspase-9): ~12.27 folds of control; Caspase-9 expression level (caspase-9): 26.92 ng/mL; Bax expression level (Bax): 232.2 ng/mL; Bax, folds of control (Bax): 5.7 folds of control; Bax/Bcl-2 ratio (Bax): 92.5; Caspase-3 expression level (caspase-3): 475.9 pg/mL
7 | COc1ccc(C2=C(C#N)C3(C(=O)Nc4ccccc43)c3c(-c4cccs4)nn(-c4ccccc4)c3N2)cc1 (stereo not shown) [Compound 6c] | 43.7 µM | 10.32 µM (Fe^2+ Eq.) | 141 µM | 43.04 ± 2.39 µg/mL | 19.1 µM | 
8 | COc1ccc(C2=C(C#N)C3(C(=O)Nc4ccc(Cl)cc43)c3c(-c4cccs4)nn(-c4ccccc4)c3N2)cc1 (stereo not shown) [Compound 6g] | > 50 µM | 7.79 µM (Fe^2+ Eq.) |  | 97.47 ± 5.62 µg/mL | > 50 µM | 
9 | N#CC1=C(c2ccccc2)Nc2c(c(-c3cccs3)nn2-c2ccccc2)C12C(=O)Nc1ccc(Br)cc12 (stereo not shown) [Compound 6i] | 17.9 µM | 11.88 µM (Fe^2+ Eq.) | 76.9 µM | 36.38 ± 2.71 µg/mL | 6.3 µM | Morphological changes of HepG2 cells [8]: cell rounding, shrinkage and monolayer disruption

Reference: publication PMC7144320, “Antitumor properties of certain spirooxindoles towards hepatocellular carcinoma endowed with antioxidant activity” (Journal of Enzyme Inhibition and Medicinal Chemistry, 2020)
